Results as given in PMC6240685, “Strong Inhibitory Effect, Low Cytotoxicity and High Plasma Stability of Steroidal Inhibitors of N-Methyl-D-Aspartate Receptors With C-3 Amide Structural Motif” (Frontiers in Pharmacology, 2018).

System: native NMDARs
Assay: Inhibition of native NMDAR responses in cultured hippocampal neurons
Format: cell-based, rat
Experimental: FIGURE 8 The effect of compound 6 on peak and steady-state responses of native NMDARs, AMPARs, and GABARs. (A) Examples of traces obtained from cultured hippocampal neurons. Compound 6 (10 μM) was pre-applied in the absence of agonists followed by co-application with NMDA (100 μM), AMPA (100 μM), and GABA (5 μM) (duration of agonist and steroid application is indicated by filled and open bars, respectively). (B) Bar graph represents the mean values of relative changes in the peak (black columns) and steady-state (red columns) responses of native NMDARs, AMPARs, and GABARs recorded in the continuous presence of 10 μM compound 6. Error bars represent SD from five independent measurements. Asterisks mark significance at the level of P < 0.05 (Paired t-test). […]
Electrophysiological experiments were performed on HEK293 cells transfected with plasmids encoding rat GluN1-1a/GluN2A-D and GFP genes as described previously, ([Petrovic et al., 2005]; [Cais et al., 2008]; [Korinek et al., 2010]) or on primary hippocampal neurons prepared from P0–P1 rats, plated on collagen/poly-D-lysine-coated glass coverslips at a density of ∼50,000 cells/cm^2, and grown in Neurobasal A medium with B27 Supplement (Gibco). […] Agonist-induced responses were low-pass filtered at 2 kHz, digitally sampled at 5 kHz, and analyzed with pClamp software version 10.5 (Molecular Devices). […]

Compound: C[C@@]12CCC[C@H]1[C@@H]1CC[C@@H]3C[C@H](NC(=O)[C@@H](N)CC(=O)O)CC[C@]3(C)[C@H]1CC2 [Compound 6, (S)-3-amino-4-(((3R,5R,8S,9S,10S,13S,14S)-10,13-dimethylhexadecahydro-1H-cyclopenta[a]phenanthren-3-yl)amino)-4-oxobutanoic acid]
- inhibition of steady-state vs peak response, NMDARs (10 μM compound present continuously, NMDA 100 μM): more efficient inhibitor of tonically activated receptors at the steady–state
- IC50 (100 μM NMDA, hippocampal neurons): 8.3 ± 2.1 µM
